Data on nine molecules can be found in article doi:10.1101/2024.08.19.608619, “Discovery of potent SARS-CoV-2 nsp3 macrodomain inhibitors uncovers lack of translation to cellular antiviral response” (bioRxiv, 2024).

Common to all, as to test: biochemical
What all share (set-up): In vitro kinase panel profiling, per cent remaining kinase activity at 10 uM

For one experiment, the target named is ALK(h) (Homo sapiens, UniProt Q9UM73). The note with it: atp_concentration=200, read-out: % of control remaining. The source says:
(§1) We derisk potential for off-target activity by profiling the compound in a CEREP panel, a standard secondary pharmacology assessment, as well as a kinase panel to derisk a potential hinge-binding motif in our leads, and a PARP panel to derisk activity against human […]. Reassuringly, the compounds are selective, with the only off-targets being moderate human CHRM2 and KOR receptors activity associated with ASAP-0011198.

Another experiment addresses T1, AMPKα1(h) (Homo sapiens, UniProt Q13131).
T1 construct: gene PRKAA1
The note with it: atp_concentration=45, read-out: % of control remaining.
Excerpt: as §1

In a further experiment the target is T2, EphB4(h) (Homo sapiens, UniProt P54760).
T2 sequence (P54760 1-987): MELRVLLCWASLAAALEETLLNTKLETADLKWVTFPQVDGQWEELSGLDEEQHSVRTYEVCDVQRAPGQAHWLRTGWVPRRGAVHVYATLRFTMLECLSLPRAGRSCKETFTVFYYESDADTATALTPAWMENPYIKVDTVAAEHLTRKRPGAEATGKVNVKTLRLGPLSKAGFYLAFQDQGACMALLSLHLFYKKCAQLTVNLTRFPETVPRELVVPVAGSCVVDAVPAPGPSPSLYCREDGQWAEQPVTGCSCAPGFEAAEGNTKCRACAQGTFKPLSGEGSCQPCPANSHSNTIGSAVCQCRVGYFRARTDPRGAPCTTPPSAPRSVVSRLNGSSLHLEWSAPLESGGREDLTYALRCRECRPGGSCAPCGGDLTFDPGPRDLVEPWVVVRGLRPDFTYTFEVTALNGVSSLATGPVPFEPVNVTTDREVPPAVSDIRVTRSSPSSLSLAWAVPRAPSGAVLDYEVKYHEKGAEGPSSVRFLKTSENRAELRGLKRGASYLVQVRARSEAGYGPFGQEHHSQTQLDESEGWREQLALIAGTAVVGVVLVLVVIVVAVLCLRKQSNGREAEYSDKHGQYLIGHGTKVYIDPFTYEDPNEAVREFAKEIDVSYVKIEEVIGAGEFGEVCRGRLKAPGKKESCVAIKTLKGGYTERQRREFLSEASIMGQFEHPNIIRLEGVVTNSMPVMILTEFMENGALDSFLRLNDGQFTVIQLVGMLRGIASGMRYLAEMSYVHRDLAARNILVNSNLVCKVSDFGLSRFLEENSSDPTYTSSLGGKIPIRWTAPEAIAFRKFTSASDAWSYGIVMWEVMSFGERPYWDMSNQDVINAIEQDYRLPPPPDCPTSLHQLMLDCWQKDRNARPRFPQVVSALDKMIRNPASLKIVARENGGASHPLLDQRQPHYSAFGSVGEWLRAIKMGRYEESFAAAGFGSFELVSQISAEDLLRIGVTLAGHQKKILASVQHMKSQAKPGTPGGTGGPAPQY
The note with it: atp_concentration=10, read-out: % of control remaining.
Excerpt: as §1

For the next experiment, the target named is T3, PKBα(h) (Homo sapiens, UniProt P31749).
T3 construct: gene AKT1
The note with it: atp_concentration=155, read-out: % of control remaining.
Excerpt: as §1

The target in the next experiment is T4, PKG1α(h) (Homo sapiens, UniProt Q13976).
T4 construct: gene PRKG1; isoform alpha
T4 sequence (Q13976 1-671): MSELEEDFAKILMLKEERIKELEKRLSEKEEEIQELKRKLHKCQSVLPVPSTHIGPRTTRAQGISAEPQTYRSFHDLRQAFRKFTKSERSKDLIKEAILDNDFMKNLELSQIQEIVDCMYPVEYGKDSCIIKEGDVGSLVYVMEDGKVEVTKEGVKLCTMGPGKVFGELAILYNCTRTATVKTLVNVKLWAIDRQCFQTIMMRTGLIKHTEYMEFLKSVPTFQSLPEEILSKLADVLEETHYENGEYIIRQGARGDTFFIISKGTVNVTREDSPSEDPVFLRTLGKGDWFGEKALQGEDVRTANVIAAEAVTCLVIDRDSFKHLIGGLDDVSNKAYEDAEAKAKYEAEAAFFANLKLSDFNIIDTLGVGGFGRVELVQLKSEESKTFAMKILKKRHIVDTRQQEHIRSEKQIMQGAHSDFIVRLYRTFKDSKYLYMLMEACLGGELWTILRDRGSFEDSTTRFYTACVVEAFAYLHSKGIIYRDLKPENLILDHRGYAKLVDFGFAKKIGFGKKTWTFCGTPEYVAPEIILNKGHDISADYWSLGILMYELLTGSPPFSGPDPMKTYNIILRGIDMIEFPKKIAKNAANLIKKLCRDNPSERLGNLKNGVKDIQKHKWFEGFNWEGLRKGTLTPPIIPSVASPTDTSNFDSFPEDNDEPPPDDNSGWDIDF
The note with it: atp_concentration=90, read-out: % of control remaining.
Excerpt: as §1

A further experiment has as its target T5, Rsk1(h) (Homo sapiens, UniProt Q15418).
T5 construct: gene RPS6KA1
Conditions: atp_concentration=45, read-out: % of control remaining.
Excerpt: as §1

Molecules are shown by their SMILES. Like-named read-outs stand apart in the source and are kept apart here.

T5 sequence (Q15418 whole entry): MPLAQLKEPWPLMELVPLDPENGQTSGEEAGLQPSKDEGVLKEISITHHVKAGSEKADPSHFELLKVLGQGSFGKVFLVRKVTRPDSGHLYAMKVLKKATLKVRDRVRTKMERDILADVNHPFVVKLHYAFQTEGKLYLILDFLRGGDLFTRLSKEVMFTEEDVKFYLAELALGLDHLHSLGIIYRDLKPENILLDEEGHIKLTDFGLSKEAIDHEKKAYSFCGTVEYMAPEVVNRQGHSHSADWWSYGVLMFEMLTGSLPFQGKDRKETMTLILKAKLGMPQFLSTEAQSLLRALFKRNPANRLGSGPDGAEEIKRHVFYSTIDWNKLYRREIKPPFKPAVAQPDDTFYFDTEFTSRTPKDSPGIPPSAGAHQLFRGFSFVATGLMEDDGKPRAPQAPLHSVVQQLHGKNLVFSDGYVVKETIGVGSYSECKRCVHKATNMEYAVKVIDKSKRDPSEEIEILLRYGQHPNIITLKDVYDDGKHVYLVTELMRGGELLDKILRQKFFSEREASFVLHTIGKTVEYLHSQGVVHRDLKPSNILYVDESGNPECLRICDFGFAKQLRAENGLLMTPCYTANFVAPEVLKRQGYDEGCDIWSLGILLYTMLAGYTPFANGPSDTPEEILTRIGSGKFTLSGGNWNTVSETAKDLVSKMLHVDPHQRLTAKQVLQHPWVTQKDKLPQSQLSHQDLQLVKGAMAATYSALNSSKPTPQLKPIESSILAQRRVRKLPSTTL
T3 sequence (P31749 whole entry): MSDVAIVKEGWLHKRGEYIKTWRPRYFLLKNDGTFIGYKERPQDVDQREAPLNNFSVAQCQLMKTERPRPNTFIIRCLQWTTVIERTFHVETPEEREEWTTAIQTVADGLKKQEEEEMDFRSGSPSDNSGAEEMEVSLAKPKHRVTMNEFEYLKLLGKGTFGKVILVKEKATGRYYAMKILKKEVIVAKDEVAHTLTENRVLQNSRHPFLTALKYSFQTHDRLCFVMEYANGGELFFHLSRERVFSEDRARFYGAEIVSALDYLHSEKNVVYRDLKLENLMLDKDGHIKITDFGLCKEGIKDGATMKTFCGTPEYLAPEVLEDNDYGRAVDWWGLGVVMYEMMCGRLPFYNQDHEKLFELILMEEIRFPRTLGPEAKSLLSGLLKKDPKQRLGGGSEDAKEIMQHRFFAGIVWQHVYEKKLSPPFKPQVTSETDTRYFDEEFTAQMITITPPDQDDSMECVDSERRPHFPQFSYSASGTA
T1 sequence (Q13131 whole entry): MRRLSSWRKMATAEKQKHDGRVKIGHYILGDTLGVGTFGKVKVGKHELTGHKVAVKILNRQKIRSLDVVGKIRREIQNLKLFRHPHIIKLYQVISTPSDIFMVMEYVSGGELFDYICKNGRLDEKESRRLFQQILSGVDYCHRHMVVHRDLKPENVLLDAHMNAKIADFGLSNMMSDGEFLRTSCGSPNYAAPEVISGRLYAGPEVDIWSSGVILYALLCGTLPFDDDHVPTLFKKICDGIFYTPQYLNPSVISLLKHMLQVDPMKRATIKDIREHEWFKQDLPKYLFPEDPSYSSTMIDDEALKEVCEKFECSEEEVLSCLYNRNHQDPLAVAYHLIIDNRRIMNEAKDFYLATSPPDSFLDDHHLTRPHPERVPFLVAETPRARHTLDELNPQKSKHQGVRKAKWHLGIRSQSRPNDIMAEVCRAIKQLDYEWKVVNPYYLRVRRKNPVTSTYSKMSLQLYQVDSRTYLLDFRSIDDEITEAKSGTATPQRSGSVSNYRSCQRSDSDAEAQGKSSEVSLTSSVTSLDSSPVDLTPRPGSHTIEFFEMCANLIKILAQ
T1 sequence (P54619 whole entry partner): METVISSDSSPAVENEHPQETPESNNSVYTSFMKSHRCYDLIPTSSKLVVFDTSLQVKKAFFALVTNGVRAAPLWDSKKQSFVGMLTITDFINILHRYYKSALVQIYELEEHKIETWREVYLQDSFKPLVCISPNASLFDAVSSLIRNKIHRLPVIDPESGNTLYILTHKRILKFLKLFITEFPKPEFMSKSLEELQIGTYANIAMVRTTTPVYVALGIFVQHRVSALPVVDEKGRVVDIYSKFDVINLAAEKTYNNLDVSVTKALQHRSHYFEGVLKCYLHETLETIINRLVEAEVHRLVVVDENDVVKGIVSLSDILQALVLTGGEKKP
T1 sequence (Q9Y478 whole entry partner): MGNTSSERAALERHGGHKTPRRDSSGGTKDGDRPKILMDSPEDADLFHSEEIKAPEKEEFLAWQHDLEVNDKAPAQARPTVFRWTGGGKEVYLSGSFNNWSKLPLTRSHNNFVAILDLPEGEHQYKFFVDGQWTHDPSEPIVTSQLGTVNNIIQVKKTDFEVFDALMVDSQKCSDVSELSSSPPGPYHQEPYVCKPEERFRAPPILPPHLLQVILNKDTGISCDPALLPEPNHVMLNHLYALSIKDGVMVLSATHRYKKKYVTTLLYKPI
ALK(h), sequence (Q9UM73 whole entry): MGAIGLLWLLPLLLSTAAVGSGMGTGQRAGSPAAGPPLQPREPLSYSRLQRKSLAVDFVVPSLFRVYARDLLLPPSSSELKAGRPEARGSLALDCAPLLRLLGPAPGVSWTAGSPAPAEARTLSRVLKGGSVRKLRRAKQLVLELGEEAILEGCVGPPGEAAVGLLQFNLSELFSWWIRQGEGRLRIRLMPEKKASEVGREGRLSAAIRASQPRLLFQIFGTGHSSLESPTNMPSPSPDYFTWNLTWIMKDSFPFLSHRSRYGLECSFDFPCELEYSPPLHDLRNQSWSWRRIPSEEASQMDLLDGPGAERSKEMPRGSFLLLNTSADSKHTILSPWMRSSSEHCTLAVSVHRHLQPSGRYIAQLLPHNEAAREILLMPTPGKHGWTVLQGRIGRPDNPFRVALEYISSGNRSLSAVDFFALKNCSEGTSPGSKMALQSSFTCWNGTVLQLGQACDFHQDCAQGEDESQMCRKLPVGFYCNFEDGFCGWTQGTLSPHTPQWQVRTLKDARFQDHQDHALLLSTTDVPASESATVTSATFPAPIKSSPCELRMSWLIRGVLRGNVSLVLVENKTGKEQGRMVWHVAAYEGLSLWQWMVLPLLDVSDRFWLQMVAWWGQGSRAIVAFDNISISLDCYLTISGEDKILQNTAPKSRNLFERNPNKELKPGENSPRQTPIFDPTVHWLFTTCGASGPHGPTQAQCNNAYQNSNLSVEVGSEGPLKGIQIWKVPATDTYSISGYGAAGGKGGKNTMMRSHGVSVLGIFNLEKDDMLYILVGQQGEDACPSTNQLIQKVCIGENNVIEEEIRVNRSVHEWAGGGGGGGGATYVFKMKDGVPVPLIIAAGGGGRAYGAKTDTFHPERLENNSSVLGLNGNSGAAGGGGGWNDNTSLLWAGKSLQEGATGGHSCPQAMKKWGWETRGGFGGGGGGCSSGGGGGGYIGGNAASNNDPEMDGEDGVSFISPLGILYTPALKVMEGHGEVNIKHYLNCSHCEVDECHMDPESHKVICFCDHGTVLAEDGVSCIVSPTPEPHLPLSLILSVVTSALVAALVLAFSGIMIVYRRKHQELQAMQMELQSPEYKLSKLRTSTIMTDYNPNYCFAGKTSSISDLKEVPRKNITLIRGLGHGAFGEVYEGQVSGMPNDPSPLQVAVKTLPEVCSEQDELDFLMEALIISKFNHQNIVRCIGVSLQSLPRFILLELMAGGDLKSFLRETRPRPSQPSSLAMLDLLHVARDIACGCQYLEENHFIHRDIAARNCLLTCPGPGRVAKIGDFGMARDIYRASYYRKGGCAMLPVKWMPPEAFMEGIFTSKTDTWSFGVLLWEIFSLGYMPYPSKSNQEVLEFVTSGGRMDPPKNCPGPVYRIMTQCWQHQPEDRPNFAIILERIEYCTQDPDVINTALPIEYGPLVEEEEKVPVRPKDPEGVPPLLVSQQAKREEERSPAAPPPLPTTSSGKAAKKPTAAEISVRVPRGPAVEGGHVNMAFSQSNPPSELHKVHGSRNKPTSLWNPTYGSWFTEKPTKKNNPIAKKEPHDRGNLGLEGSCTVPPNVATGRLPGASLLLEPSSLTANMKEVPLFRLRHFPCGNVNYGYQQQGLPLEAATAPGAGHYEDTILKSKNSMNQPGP

With `CC(C)C(Nc1ncnc2[nH]ccc12)c1ccc2c(c1)S(=O)(=O)CCC2` (stereo not drawn) [ASAP-0008327], the remaining activity at 10 µM at ALK(h) (batch_name=ASAP-0008327-001) was determined as 93%; on AMPKα1(h) (batch_name=ASAP-0008327-001) it was 94%; on EphB4(h) (batch_name=ASAP-0008327-001), 91%; at PKBα(h) (batch_name=ASAP-0008327-001) it was 96%; on PKG1α(h) (batch_name=ASAP-0008327-001), 88%; at Rsk1(h) (batch_name=ASAP-0008327-001), 92%.

Turning to `COc1ccc([C@@H](Cc2nnn[nH]2)NC(=O)c2ncnc3[nH]ccc23)cc1` [ASAP-0008340], the remaining activity at 10 µM at ALK(h) (batch_name=ASAP-0008340-001) amounted to 95%; on AMPKα1(h) (batch_name=ASAP-0008340-001), 101%; on EphB4(h) (batch_name=ASAP-0008340-001), 88%; at PKBα(h) (batch_name=ASAP-0008340-001) it was 94%; at PKG1α(h) (batch_name=ASAP-0008340-001), 95%; on Rsk1(h) (batch_name=ASAP-0008340-001), 98%.

Turning to `CC(C)[C@@H](Nc1ncnc2[nH]c(-c3cnn(C)c3C#N)cc12)c1ccc2c(n1)OCCO2` [ASAP-0008418], the remaining activity at 10 µM at ALK(h) (batch_name=ASAP-0008418-001) was determined as 103%; at AMPKα1(h) (batch_name=ASAP-0008418-001), 116%; at EphB4(h) (batch_name=ASAP-0008418-001) it was 75%; on PKBα(h) (batch_name=ASAP-0008418-001) it was 95%; at PKG1α(h) (batch_name=ASAP-0008418-001), 100%; on Rsk1(h) (batch_name=ASAP-0008418-001) it was 145%.

`CC(C)[C@H](Nc1ncnc2[nH]ccc12)c1ccc2c(c1)S(=O)(=O)CCC2` [ASAP-0008674]: the remaining activity at 10 µM on ALK(h) (batch_name=ASAP-0008674-002) was found to be 100%; at AMPKα1(h) (batch_name=ASAP-0008674-002), 104%; on EphB4(h) (batch_name=ASAP-0008674-002), 86%; at PKBα(h) (batch_name=ASAP-0008674-002), 95%; at PKG1α(h) (batch_name=ASAP-0008674-002), 123%; on Rsk1(h) (batch_name=ASAP-0008674-002) it was 102%.

Regarding `CC(C)[C@H](Nc1ncnc2[nH]c(-c3cnn(C)c3C#N)cc12)c1ccc2c(n1)OCCO2` [ASAP-0010715], the remaining activity at 10 µM at ALK(h) (batch_name=ASAP-0010715-002) turned out to be 116%; on AMPKα1(h) (batch_name=ASAP-0010715-002), 111%; at EphB4(h) (batch_name=ASAP-0010715-002), 89%; at PKBα(h) (batch_name=ASAP-0010715-002) it was 90%; at PKG1α(h) (batch_name=ASAP-0010715-002), 130%; at Rsk1(h) (batch_name=ASAP-0010715-002), 120%.

Turning to `CC(C)[C@@H](Nc1ncnc2[nH]c(-c3cnn(C)c3C#N)cc12)c1ccc2c(n1)OCCO2` [ASAP-0010716], the remaining activity at 10 µM stood at 106% on ALK(h) (batch_name=ASAP-0010716-002); 99% at AMPKα1(h) (batch_name=ASAP-0010716-002); 91% at EphB4(h) (batch_name=ASAP-0010716-002); 94% on PKBα(h) (batch_name=ASAP-0010716-002); 123% at PKG1α(h) (batch_name=ASAP-0010716-002); 102% at Rsk1(h) (batch_name=ASAP-0010716-002).

For `CNCc1cc(-c2cc3c(N[C@@H](c4ccc5c(c4)S(=O)(=O)CCC5)C(C)C)ncnc3[nH]2)co1` [ASAP-0011176], the remaining activity at 10 µM on ALK(h) (batch_name=ASAP-0011176-002) stood at 99%; at AMPKα1(h) (batch_name=ASAP-0011176-002) it was 86%; on EphB4(h) (batch_name=ASAP-0011176-002), 92%; at PKBα(h) (batch_name=ASAP-0011176-002), 96%; at PKG1α(h) (batch_name=ASAP-0011176-002) it was 115%; on Rsk1(h) (batch_name=ASAP-0011176-002) it was 90%.

For the molecule `CC(C)C(Nc1ncnc2[nH]c(C(=O)NC3CCN(C)C3)cc12)c1ccc2c(c1)S(=O)(=O)CCC2` (stereo not drawn) [ASAP-0011198], the remaining activity at 10 µM was 106% on ALK(h) (batch_name=ASAP-0011198-002); 107% on AMPKα1(h) (batch_name=ASAP-0011198-002); 86% on EphB4(h) (batch_name=ASAP-0011198-002); 88% on PKBα(h) (batch_name=ASAP-0011198-002); 116% on PKG1α(h) (batch_name=ASAP-0011198-002); 94% on Rsk1(h) (batch_name=ASAP-0011198-002).

Consider `Cn1ncc(-c2cc3c(N[C@@H](c4ccc5c(n4)OCCO5)C(C)(C)C)ncnc3[nH]2)c1C#N` [ASAP-0011221], for which the remaining activity at 10 µM at ALK(h) (batch_name=ASAP-0011221-002) came to 117%; at AMPKα1(h) (batch_name=ASAP-0011221-002), 109%; at EphB4(h) (batch_name=ASAP-0011221-002) it was 115%; at PKBα(h) (batch_name=ASAP-0011221-002), 103%; on PKG1α(h) (batch_name=ASAP-0011221-002) it was 127%; on Rsk1(h) (batch_name=ASAP-0011221-002) it was 136%.
